This note sets out measurements from patent US20230009626A1 (ICHNOS SCIENCES S.A., priority 2018, published 2023).

The target of this assay is HPK1 (MAP4K1) (Homo sapiens, UniProt Q92918). The assay is described as follows: FRET Assay for HPK1 (MAP4K1): one step binding assay, displacement of labeled tracer. The note with it: for inhibition at 1 µM: 1 μM compound; for inhibition at 1 µM / inhibition at 10 µM: FRET ratio 665/620, percent of control; for inhibition at 10 µM: 10 μM compound; for IC50: dose response curve, nonlinear regression. In short, it runs like this: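 Percent inhibition at 1.0 and 10.0 μM and IC50 by nonlinear regression were derived from loss of FRET signal versus control. The signal runs from Eu-anti-GST antibody (4 nM) bound to 10 nM HPK1 kinase to Alexa Fluor 647 Kinase Tracer 222 (20 nM), added after a 15-min on-ice compound pre-incubation. Binding then proceeded 1 h at room temperature in HEPES pH 7.5 buffer with 10 mM MgCl2, 1 mM EGTA, 0.01% Brij-35 and 3% DMSO.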
Sequence of HPK1 (MAP4K1) (Q92918 whole entry): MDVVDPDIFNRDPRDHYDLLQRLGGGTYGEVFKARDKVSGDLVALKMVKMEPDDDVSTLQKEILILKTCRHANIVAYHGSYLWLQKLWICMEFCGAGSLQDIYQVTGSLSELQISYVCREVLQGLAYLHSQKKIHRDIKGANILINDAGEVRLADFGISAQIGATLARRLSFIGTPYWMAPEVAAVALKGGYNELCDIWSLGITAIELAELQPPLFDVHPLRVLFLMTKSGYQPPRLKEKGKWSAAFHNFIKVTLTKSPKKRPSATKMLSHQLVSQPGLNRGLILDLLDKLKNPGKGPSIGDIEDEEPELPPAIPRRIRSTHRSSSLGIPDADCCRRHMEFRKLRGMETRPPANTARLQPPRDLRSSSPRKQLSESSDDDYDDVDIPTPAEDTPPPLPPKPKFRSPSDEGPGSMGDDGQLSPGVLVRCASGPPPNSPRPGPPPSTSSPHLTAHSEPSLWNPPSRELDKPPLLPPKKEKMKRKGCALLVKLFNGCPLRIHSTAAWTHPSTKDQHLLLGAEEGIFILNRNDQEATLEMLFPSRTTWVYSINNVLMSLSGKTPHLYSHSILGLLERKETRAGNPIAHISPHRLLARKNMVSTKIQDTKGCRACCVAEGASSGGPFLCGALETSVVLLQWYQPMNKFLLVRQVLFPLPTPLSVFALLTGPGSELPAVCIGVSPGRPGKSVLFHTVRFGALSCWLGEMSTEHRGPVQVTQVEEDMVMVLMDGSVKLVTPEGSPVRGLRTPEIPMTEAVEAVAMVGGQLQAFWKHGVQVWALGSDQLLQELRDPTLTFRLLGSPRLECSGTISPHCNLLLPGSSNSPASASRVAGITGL

Take `CC(=O)N1CCC(n2cc(N/C(C)=C3\C(=O)Nc4cnc(-c5cnccc5C)cc43)cn2)CC1` [Example 90, (Z)-3-(1-((1-(1-Acetylpiperidin-4-yl)-1H-pyrazol-4-yl)amino)ethylidene)-5-(4-methylpyridin-3-yl)-1H-pyrrolo[2,3-c]pyridin-2(3H)-one]: the inhibition (usually the relative decrease from the control value, in per cent) at 1 µM stood at 72.7%; the inhibition at 10 µM stood at 75.6%; the concentration for half-maximal inhibition (IC50) – broadly, the concentration that inhibits the measured activity by half – was under 50 nM.
The matching figures for `CNC(=O)C(C)(C)n1ccc(N/C(C)=C2\C(=O)Nc3cnc(-c4cnccc4C)cc32)n1` [Example 118, (Z)-N,2-dimethyl-2-(3-((1-(5-(4-methylpyridin-3-yl)-2-oxo-1H-pyrrolo[2,3-c]pyridin-3(2H)-ylidene)ethyl)amino)-1H-pyrazol-1-yl)propanamide]: 78.4%, 83.3% and under 50 nM.
The matching figures for `C/C(Nc1cc(C)n(CC2CC2)n1)=C1/C(=O)Nc2cnc(-c3cnccc3C)cc21` [Example 189, (Z)-3-(1-((1-(cyclopropylmethyl)-5-methyl-1H-pyrazol-3-yl)amino)ethylidene)-5-(4-methylpyridin-3-yl)-1H-pyrrolo[2,3-c]pyridin-2(3H)-one]: 73.5%, 76.9% and under 50 nM.
Regarding `C/C(Nc1ccc(N2CCNCC2)cn1)=C1/C(=O)Nc2cnc(-c3cnccc3C)cc21` [Example 74, (Z)-5-(4-Methylpyridin-3-yl)-3-(1-((5-(piperazin-1-yl)pyridin-2-yl)amino)ethylidene)-1H-pyrrolo[2,3-c]pyridin-2(3H)-one], the inhibition at 1 µM came out at 76.3% and the IC50 is under 50 nM.
With `C/C(Nc1cc(C)n(C[C@H](C)O)n1)=C1/C(=O)Nc2cnc(-c3cnccc3C)cc21` [Example 184, (S,Z)-3-(1-((1-(2-Hydroxypropyl)-5-methyl-1H-pyrazol-3-yl)amino)ethylidene)-5-(4-methylpyridin-3-yl)-1H-pyrrolo[2,3-c]pyridin-2(3H)-one], the inhibition at 1 µM is 70.3%, the inhibition at 10 µM was 75.2% and the half-maximal inhibitory concentration (IC50) was under 50 nM.
For `C/C(Nc1cnn(C)c1)=C1/C(=O)Nc2ccc(-c3cnccc3C)nc21` [Example 62, (Z)-3-(1-((1-Methyl-1H-pyrazol-4-yl)amino)ethylidene)-5-(4-methylpyridin-3-yl)-1H-pyrrolo[3,2-b]pyridin-2(3H)-one] the same measures were 80.3%, 94.7% and under 50 nM.
On to `CCn1ccc(N/C(C)=C2\C(=O)Nc3cnc(-c4cnccc4C)cc32)n1` [Example 73, (Z)-3-(1-((1-Ethyl-1H-pyrazol-3-yl)amino)ethylidene)-5-(4-methylpyridin-3-yl)-1H-pyrrolo[2,3-c]pyridin-2(3H)-one], for which the inhibition at 1 µM stood at 69.6%, the inhibition at 10 µM was determined as 63.9% and the IC50 is under 50 nM.
With `COc1cccc(F)c1-c1cc2c(cn1)NC(=O)/C2=C(/C)Nc1ccc(N(C)C)nc1` [Example 117, (Z)-3-(1-((6-(Dimethylamino)pyridin-3-yl)amino)ethylidene)-5-(2-fluoro-6-methoxyphenyl)-1H-pyrrolo[2,3-c]pyridin-2(3H)-one], the inhibition at 1 µM was determined as 54.8% and the inhibition at 10 µM was 56.4%.
Consider `C/C(Nc1ccc(N2CCOCC2)nc1)=C1/C(=O)Nc2cnc(-c3cnccc3C)cc21` [Example 38, (Z)-5-(4-Methylpyridin-3-yl)-3-(1-((6-morpholinopyridin-3-yl)amino)ethylidene)-1H-pyrrolo[2,3-c]pyridin-2(3H)-one], for which the inhibition at 1 µM amounted to 93.5% and the IC50 was under 50 nM.
Consider `C/C(Nc1cc(C)n(C)n1)=C1/C(=O)Nc2cnc(-c3cnccc3C)cc21` [Example 129, (Z)-3-(1-((1,5-dimethyl-1H-pyrazol-3-yl)amino)ethylidene)-5-(4-methylpyridin-3-yl)-1H-pyrrolo[2,3-c]pyridin-2(3H)-one], for which the inhibition at 1 µM worked out at 76.4%, the inhibition at 10 µM was determined as 82.2% and the IC50 was under 50 nM.
For `C/C(Nc1ccc(N2CCNCC2)cc1)=C1/C(=O)Nc2cnc(-c3cnccc3C)cc21` [Example 58, (Z)-5-(4-Methylpyridin-3-yl)-3-(1-((4-(piperazin-1-yl)phenyl)amino)ethylidene)-1H-pyrrolo[2,3-c]pyridin-2(3H)-one], the inhibition at 1 µM was 71%, the inhibition at 10 µM turned out to be 72.7% and the IC50 is under 50 nM.
For `COc1cccc(F)c1-c1cc2c(cn1)NC(=O)/C2=C(/C)Nc1cnn(C(C)C#N)c1` (stereo not shown) [Example 31, (Z)-2-(4-((1-(5-(2-Fluoro-6-methoxyphenyl)-2-oxo-1H-pyrrolo[2,3-c]pyridin-3(2H)-ylidene)ethyl)amino)-1H-pyrazol-1-yl)propanenitrile] the same measures were 86.9%, 92.3% and under 50 nM.
With `C/C(Nc1ccn(CC[C@@H](C)O)n1)=C1/C(=O)Nc2cnc(-c3cnccc3C)cc21` [Example 169, (R,Z)-3-(1-((1-(3-Hydroxybutyl)-1H-pyrazol-3-yl)amino)ethylidene)-5-(4-methylpyridin-3-yl)-1H-pyrrolo[2,3-c]pyridin-2(3H)-one], the inhibition at 1 µM was 71.4%, the inhibition at 10 µM was 84.3% and the IC50 was under 50 nM.
The matching figures for `C/C(Nc1cnn(C)c1)=C1/C(=O)Nc2cnc(-c3cnccc3C)cc21` [Example 23, (Z)-3-(1-((1-methyl-1H-pyrazol-4-yl)amino)ethylidene)-5-(4-methylpyridin-3-yl)-1H-pyrrolo[2,3-c]pyridin-2(3H)-one]: 84.6%, 87% and under 50 nM.
As to `CC/C(Nc1ccc(N2CCN(C)CC2)cc1)=C1/C(=O)Nc2ccc(-c3c(F)cccc3OC)cc21` [Example 9, (Z)-5-(2-Fluoro-6-methoxyphenyl)-3-(1-((4-(4-methylpiperazin-1-yl)phenyl)amino)propylidene)indolin-2-one], the inhibition at 1 µM is 84.9%, the inhibition at 10 µM was determined as 84.4% and the IC50 is under 50 nM.
The matching figures for `C/C(Nc1cnn(C)c1)=C1/C(=O)Nc2cnc(-c3cccnc3C)cc21` [Example 158, (Z)-3-(1-((1-Methyl-1H-pyrazol-4-yl)amino)ethylidene)-5-(2-methylpyridin-3-yl)-1H-pyrrolo[2,3-c]pyridin-2(3H)-one]: 74.7%, 91.1% and 100 to 500 nM.
For `CCn1cc(N/C(C)=C2\C(=O)Nc3cnc(-c4c(F)cccc4OC)cc32)cn1` [Example 29, (Z)-3-(1-((1-Ethyl-1H-pyrazol-4-yl)amino)ethylidene)-5-(2-fluoro-6-methoxyphenyl)-1H-pyrrolo[2,3-c]pyridin-2(3H)-one] the same measures were 87.4%, 85.1% and under 50 nM.
For `C/C(Nc1cnn(C2CCOCC2)c1)=C1/C(=O)Nc2cnc(-c3cnccc3C)cc21` [Example 57, (Z)-5-(4-Methylpyridin-3-yl)-3-(1-((1-(tetrahydro-2H-pyran-4-yl)-1H-pyrazol-4-yl)amino)ethylidene)-1H-pyrrolo[2,3-c]pyridin-2(3H)-one] the same measures were 80.9%, 94.1% and under 50 nM.
As to `CCS(=O)(=O)n1ccc(N/C(C)=C2\C(=O)Nc3cnc(-c4cnccc4C)cc32)n1` [Example 94, (Z)-3-(1-((1-(Ethylsulfonyl)-1H-pyrazol-3-yl)amino)ethylidene)-5-(4-methylpyridin-3-yl)-1H-pyrrolo[2,3-c]pyridin-2(3H)-one], the inhibition at 1 µM was 66.8%, the inhibition at 10 µM is 75.4% and the IC50 was under 50 nM.
With `C/C(Nc1ccn(CC2(O)CC2)n1)=C1/C(=O)Nc2cnc(-c3cnccc3C)cc21` [Example 168, (Z)-3-(1-((1-((1-Hydroxycyclopropyl)methyl)-1H-pyrazol-3-yl)amino)ethylidene)-5-(4-methylpyridin-3-yl)-1H-pyrrolo[2,3-c]pyridin-2(3H)-one], the inhibition at 1 µM worked out at 67.6%, the inhibition at 10 µM stood at 76.7% and the IC50 is under 50 nM.
For `C/C(Nc1cnn(C)c1)=C1/C(=O)Nc2ccc(-c3cnccc3C)cc21` [Example 161, (Z)-3-(1-((1-Methyl-1H-pyrazol-4-yl)amino)ethylidene)-5-(4-methylpyridin-3-yl)indolin-2-one] the same measures were 81.2%, 81% and under 50 nM.
As for `CC(=O)N1CCN(c2ccc(N/C(C)=C3\C(=O)Nc4cnc(-c5cnccc5C)cc43)cn2)CC1` [Example 70, (Z)-3-(1-((6-(4-Acetylpiperazin-1-yl)pyridin-3-yl)amino)ethylidene)-5-(4-methylpyridin-3-yl)-1H-pyrrolo[2,3-c]pyridin-2(3H)-one], the inhibition at 1 µM came out at 69.5% and the inhibition at 10 µM is 69.9%.
`COc1cccc(F)c1-c1ccc2c(c1)/C(=C(\C)Nc1ccc(N3CCOCC3)cc1)C(=O)N2` [Example 13, (Z)-5-(2-Fluoro-6-methoxyphenyl)-3-(1-((4-morpholinophenyl)amino)ethylidene)indolin-2-one]: the inhibition at 1 µM was 73.3% and the IC50 lay in the range of 50 to 100 nM.
For the molecule `COc1cccc(F)c1-c1cc2c(cn1)NC(=O)/C2=C(/C)Nc1cnn([C@@H](C)C#N)c1` [Example 172, (S,Z)-2-(4-((1-(5-(2-Fluoro-6-methoxyphenyl)-2-oxo-1H-pyrrolo[2,3-c]pyridin-3(2H)-ylidene)ethyl)amino)-1H-pyrazol-1-yl)propanenitrile], the inhibition at 1 µM was found to be 79.2%, the inhibition at 10 µM is 80.5% and the half-maximal inhibitory concentration (IC50) was under 50 nM.
